Results reported in the NIST ThermoML archive (doi:10.1016/j.fluid.2018.10.006).

Conditions: Fluid (supercritical or subcritical phases), Coaxial cylinder method

CCCCCC [hexane]
Conditions | thermal conductivity [W/m/K]
513.09 K, 8500 kPa | 0.07722
513.09 K, 8790 kPa | 0.07758
513.09 K, 8830 kPa | 0.07762
513.09 K, 8882 kPa | 0.07769
513.09 K, 9275 kPa | 0.07816
513.09 K, 9297 kPa | 0.07816
513.09 K, 9300 kPa | 0.07816
513.09 K, 9344 kPa | 0.0782
513.09 K, 9367 kPa | 0.07824
513.09 K, 9700 kPa | 0.07864
513.09 K, 9900 kPa | 0.07883
513.09 K, 10000 kPa | 0.07894
515.56 K, 676 kPa | 0.03834
515.56 K, 700 kPa | 0.03843
515.56 K, 900 kPa | 0.03853
515.56 K, 1220 kPa | 0.039
515.56 K, 1221 kPa | 0.039
515.56 K, 1672 kPa | 0.04008
515.56 K, 1786 kPa | 0.04038
515.56 K, 1822 kPa | 0.04059
515.56 K, 2209 kPa | 0.0423
515.56 K, 2287 kPa | 0.04275
515.56 K, 2404 kPa | 0.04344
515.56 K, 2503 kPa | 0.04392
515.56 K, 2607 kPa | 0.04465
515.56 K, 2688 kPa | 0.04553
515.56 K, 2751 kPa | 0.04606
515.56 K, 2811 kPa | 0.04699
515.56 K, 2856 kPa | 0.04713
515.56 K, 2919 kPa | 0.04712
515.56 K, 2953 kPa | 0.04782
515.56 K, 2989 kPa | 0.04928
515.56 K, 3019 kPa | 0.05004
515.56 K, 3062 kPa | 0.05082
515.56 K, 3072 kPa | 0.05082
515.56 K, 3083 kPa | 0.05163
515.56 K, 3103 kPa | 0.05247
515.56 K, 3114 kPa | 0.05247
515.56 K, 3122 kPa | 0.05247
515.56 K, 3140 kPa | 0.05247
515.56 K, 3153 kPa | 0.05333
515.56 K, 3164 kPa | 0.05333
515.56 K, 3174 kPa | 0.05422
515.56 K, 3180 kPa | 0.05422
515.56 K, 3193 kPa | 0.05609
515.56 K, 3201 kPa | 0.05609
515.56 K, 3209 kPa | 0.05609
515.56 K, 3220 kPa | 0.05609
515.56 K, 3230 kPa | 0.05808
515.56 K, 3235 kPa | 0.05808
515.56 K, 3243 kPa | 0.05808
515.56 K, 3249 kPa | 0.05808
515.56 K, 3257 kPa | 0.06022
515.56 K, 3265 kPa | 0.06022
515.56 K, 3270 kPa | 0.06022
515.56 K, 3275 kPa | 0.06022
515.56 K, 3283 kPa | 0.06205
515.56 K, 3293 kPa | 0.06205
515.56 K, 3301 kPa | 0.06374
515.56 K, 3309 kPa | 0.06474
515.56 K, 3316 kPa | 0.065
515.56 K, 3322 kPa | 0.06539
515.56 K, 3329 kPa | 0.06578
515.56 K, 3334 kPa | 0.06604
515.56 K, 3339 kPa | 0.06631
515.56 K, 3342 kPa | 0.06658
515.56 K, 3347 kPa | 0.06685
515.56 K, 3350 kPa | 0.06698
515.56 K, 3352 kPa | 0.06712
515.56 K, 3357 kPa | 0.06737
515.56 K, 3360 kPa | 0.06751
515.56 K, 3362 kPa | 0.06759
515.56 K, 3368 kPa | 0.06795
515.56 K, 3373 kPa | 0.06823
515.56 K, 3386 kPa | 0.06866
515.56 K, 3394 kPa | 0.06909
515.56 K, 3426 kPa | 0.06997
515.56 K, 3453 kPa | 0.06911
515.56 K, 3462 kPa | 0.06911
515.56 K, 3482 kPa | 0.06911
515.56 K, 3490 kPa | 0.06911
515.56 K, 3499 kPa | 0.06911
515.56 K, 3520 kPa | 0.06911
515.56 K, 3541 kPa | 0.06911
515.56 K, 3550 kPa | 0.06911
515.56 K, 3566 kPa | 0.06911
515.56 K, 3579 kPa | 0.06769
515.56 K, 3614 kPa | 0.06769
515.56 K, 3638 kPa | 0.06769
515.56 K, 3682 kPa | 0.06769
515.56 K, 3700 kPa | 0.06769
515.56 K, 3750 kPa | 0.06938
515.56 K, 3800 kPa | 0.06938
515.56 K, 3841 kPa | 0.06944
515.56 K, 3900 kPa | 0.0695
515.56 K, 3928 kPa | 0.06953
515.56 K, 3941 kPa | 0.06959
515.56 K, 3995 kPa | 0.06965
515.56 K, 4000 kPa | 0.06968
515.56 K, 4025 kPa | 0.06968
515.56 K, 4104 kPa | 0.06983
515.56 K, 4200 kPa | 0.07004
515.56 K, 4307 kPa | 0.07016
515.56 K, 4388 kPa | 0.07034
515.56 K, 4400 kPa | 0.0704
515.56 K, 4488 kPa | 0.07058
515.56 K, 4537 kPa | 0.07067
515.56 K, 4593 kPa | 0.0708
515.56 K, 4620 kPa | 0.07089
515.56 K, 4700 kPa | 0.07098
515.56 K, 4790 kPa | 0.07114
515.56 K, 4800 kPa | 0.07117
515.56 K, 4830 kPa | 0.07123
515.56 K, 4900 kPa | 0.07129
515.56 K, 5000 kPa | 0.07151
515.56 K, 5100 kPa | 0.07167
515.56 K, 5130 kPa | 0.0717
515.56 K, 5200 kPa | 0.07182
515.56 K, 5300 kPa | 0.07198
515.56 K, 5400 kPa | 0.07217
515.56 K, 5580 kPa | 0.07243
515.56 K, 5600 kPa | 0.07246
515.56 K, 5690 kPa | 0.07265
515.56 K, 5740 kPa | 0.07275
515.56 K, 5800 kPa | 0.07285
515.56 K, 5900 kPa | 0.07301
515.56 K, 6050 kPa | 0.07327
515.56 K, 6060 kPa | 0.07327
515.56 K, 6080 kPa | 0.0733
515.56 K, 6300 kPa | 0.07366
515.56 K, 6380 kPa | 0.0738
515.56 K, 6460 kPa | 0.07393
515.56 K, 6610 kPa | 0.07417
515.56 K, 6920 kPa | 0.07464
515.56 K, 6950 kPa | 0.07468
515.56 K, 7020 kPa | 0.07478
515.56 K, 7100 kPa | 0.07488
515.56 K, 7470 kPa | 0.0754
515.56 K, 7560 kPa | 0.07554
515.56 K, 7570 kPa | 0.07557
515.56 K, 7600 kPa | 0.0756
515.56 K, 7840 kPa | 0.07592
515.56 K, 7870 kPa | 0.07595
515.56 K, 7940 kPa | 0.07602
515.56 K, 8050 kPa | 0.07617
515.56 K, 8100 kPa | 0.0762
515.56 K, 8140 kPa | 0.07624
515.56 K, 8230 kPa | 0.07638
515.56 K, 8370 kPa | 0.07656
515.56 K, 8470 kPa | 0.07663
515.56 K, 8540 kPa | 0.0767
515.56 K, 8730 kPa | 0.07695
515.56 K, 8870 kPa | 0.07714
515.56 K, 9080 kPa | 0.07739
515.56 K, 9100 kPa | 0.07739
525.42 K, 1000 kPa | 0.0403
525.42 K, 1500 kPa | 0.0416
525.42 K, 1975 kPa | 0.04209
525.42 K, 1984 kPa | 0.04209
525.42 K, 2100 kPa | 0.04213
525.42 K, 2200 kPa | 0.04213
525.42 K, 2300 kPa | 0.04213
525.42 K, 2404 kPa | 0.04213
525.42 K, 2423 kPa | 0.04213
525.42 K, 2425 kPa | 0.04213
